Reference: US5834454A, “Substituted guanidine derivatives, process for production thereof, and pharmaceutical uses thereof” (Sumitomo Pharmaceuticals Company, Limited, priority 1996, dated 1998)

target: T1, Na^+ /H^+ exchange transport system (Rattus norvegicus, UniProt P26431); experiment: Inhibitory effect on the Na^+ /H^+ exchange transport system (in vitro), pH change in isolated ventricular myocytes under an acid load; assay type: cell-based
T1 construct: isolated ventricular myocytes (rat); endogenous in cells; host or cells: isolated rat ventricular myocytes (primary cells)
Method: Inhibitry effect on the Na^+ /H^+ exchange transport system (in vitro)
A test was carried out according to the method of Iemori et al. (J. Hypertension, 8, 153 (1990)). In detail, inhibitory effect on the Na^+ /H^+ exchange transport system was evaluated by using as an indication a pH change in isolated ventricular myocytes (rat) under an acid load.

T1 sequence (P26431 whole entry): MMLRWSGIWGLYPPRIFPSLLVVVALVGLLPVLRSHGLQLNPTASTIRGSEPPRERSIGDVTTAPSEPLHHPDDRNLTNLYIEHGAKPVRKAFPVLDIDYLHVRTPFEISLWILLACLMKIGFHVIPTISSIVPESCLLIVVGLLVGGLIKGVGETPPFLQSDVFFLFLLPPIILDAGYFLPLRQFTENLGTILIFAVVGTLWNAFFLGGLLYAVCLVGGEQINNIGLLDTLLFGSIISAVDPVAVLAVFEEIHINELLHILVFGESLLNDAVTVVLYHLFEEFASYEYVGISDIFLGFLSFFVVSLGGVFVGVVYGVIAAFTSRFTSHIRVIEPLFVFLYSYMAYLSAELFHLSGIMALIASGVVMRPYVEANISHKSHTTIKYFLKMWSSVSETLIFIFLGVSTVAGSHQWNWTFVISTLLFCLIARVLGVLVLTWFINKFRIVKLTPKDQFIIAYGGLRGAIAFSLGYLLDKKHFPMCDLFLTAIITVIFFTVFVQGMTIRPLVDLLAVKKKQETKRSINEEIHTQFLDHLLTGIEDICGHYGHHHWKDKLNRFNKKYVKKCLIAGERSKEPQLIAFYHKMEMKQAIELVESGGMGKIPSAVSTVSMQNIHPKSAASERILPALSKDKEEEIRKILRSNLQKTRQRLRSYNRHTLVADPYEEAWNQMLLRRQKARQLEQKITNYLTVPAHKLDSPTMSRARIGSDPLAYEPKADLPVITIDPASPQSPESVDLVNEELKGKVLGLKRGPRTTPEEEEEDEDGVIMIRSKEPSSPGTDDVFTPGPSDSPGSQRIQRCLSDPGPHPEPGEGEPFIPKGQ

Row | Structure (SMILES) | IC50 [nM]
1 | Cc1ccc2c3c1cc(C(=O)N=C(N)N)n3CCC2=O [Example 1, N-(aminoiminomethyl)-5,6-dihydro-9-methyl-6-oxo-4H-pyrrolo [3,2,1-ij]quinoline-2-carboxamide methanesulfonate] | 300
2 | Cc1ccc2c3c1cc(C(=O)N=C(N)N)n3CCO2 [Example 2, N-(aminoiminomethyl)-2,3-dihydro-7-methyl-pyrrolo [1,2,3-de]-1,4-benzoxazine-5-carboxamide methanesulfonate] | 200
3 | NC(N)=NC(=O)c1cc2cccc3c2n1CCC3 [Example 3, N-(aminoiminomethyl)-5,6-dihydro-4H-pyrrolo [3,2,1-ij]quinoline-2-carboxamide methanesulfonate] | 300
